Data: PubChem BioAssay AID1918940 (Molecular Pharmacology Branch, DTP, NCI, 2023)

Tested on: NCI-H211 complex spheroid viability
Test: Anticancer human tumor NCI-H211 cell line growth inhibition [LSD1];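 note: luminescent viability read after seven days of drug exposure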;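 for viability, T/C: 100% = DMSO vehicle control viability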
Conditions: for IC50: curve of first compound; for viability, T/C: stronger effect = lower value; active = viability on the fitted dose curve at most 10% of control; inactive = the rest
Summary of the method: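 Multicellular complex spheroids of tumor cells with human endothelial cells (HUVEC) and mesenchymal stem cells; the LSD1 inhibitor iadademstat was combined with standard-of-care or investigational agents. Top concentration at or near clinical Cmax, half-log dilutions; final DMSO ≤0.25%.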

[1] = second compound 0.1 µM, first compound 0.00949 µM
[2] = second compound 0.1 µM, first compound 0.03 µM
[3] = second compound 0.1 µM, first compound 0.0949 µM
[4] = second compound 0.1 µM, first compound 0.3 µM
[5] = second compound 0.1 µM, first compound 0.949 µM
[6] = second compound 0.1 µM, first compound 3 µM
[7] = second compound 0.316 µM, first compound 0.00949 µM
[8] = second compound 0.316 µM, first compound 0.03 µM
[9] = second compound 0.316 µM, first compound 0.0949 µM
[10] = second compound 0.316 µM, first compound 0.3 µM
[11] = second compound 0.316 µM, first compound 0.949 µM
[12] = second compound 0.316 µM, first compound 3 µM
[13] = second compound 1 µM, first compound 0.00949 µM
[14] = second compound 1 µM, first compound 0.03 µM
[15] = second compound 1 µM, first compound 0.0949 µM
[16] = second compound 1 µM, first compound 0.3 µM
[17] = second compound 1 µM, first compound 0.949 µM
[18] = second compound 1 µM, first compound 3 µM
[19] = second compound 3.16 µM, first compound 0.00949 µM
[20] = second compound 3.16 µM, first compound 0.03 µM
[21] = second compound 3.16 µM, first compound 0.0949 µM
[22] = second compound 3.16 µM, first compound 0.3 µM
[23] = second compound 3.16 µM, first compound 0.949 µM
[24] = second compound 3.16 µM, first compound 3 µM
[25] = second compound 10 µM, first compound 0.00949 µM
[26] = second compound 10 µM, first compound 0.03 µM
[27] = second compound 10 µM, first compound 0.0949 µM
[28] = second compound 10 µM, first compound 0.3 µM
[29] = second compound 10 µM, first compound 0.949 µM
[30] = second compound 10 µM, first compound 3 µM

Cn1ncnc1C1c2n[nH]c(=O)c3cc(F)cc(c23)NC1c1ccc(F)cc1 (stereo not given) + NC1CCC(NC2CC2c2ccccc2)CC1
< 0.316 nM: IC50 (second compound 10 µM)
1.24 nM: IC50 (second compound 3.16 µM)
1.68 nM: IC50 (second compound 0.316 µM)
1.56 nM: IC50 (second compound 1 µM)
active: viability, T/C (second compound 0.1 µM, first compound 0.01 µM) 4.59% | viability, T/C (second compound 0.1 µM, first compound 0.0316 µM) 1.93% | viability, T/C (second compound 0.1 µM, first compound 0.1 µM) 2.12% | viability, T/C (second compound 0.316 µM, first compound 0.01 µM) 4.65% | viability, T/C (second compound 0.316 µM, first compound 0.0316 µM) 2.59% | viability, T/C (second compound 0.316 µM, first compound 0.1 µM) 2.43% | viability, T/C (second compound 1 µM, first compound 0.01 µM) 4.84% | viability, T/C (second compound 1 µM, first compound 0.0316 µM) 2.31% | viability, T/C (second compound 1 µM, first compound 0.1 µM) 2.49% | viability, T/C (second compound 3.16 µM, first compound 0.01 µM) 3.84% | viability, T/C (second compound 3.16 µM, first compound 0.0316 µM) 2.11% | viability, T/C (second compound 3.16 µM, first compound 0.1 µM) 2.23% | viability, T/C (second compound 10 µM, first compound 0.01 µM) 1.98% | viability, T/C (second compound 10 µM, first compound 0.0316 µM) 0.92% | viability, T/C (second compound 10 µM, first compound 0.1 µM) 1.15%
1.91 nM: IC50 (second compound 0.1 µM)
inactive: viability, T/C (second compound 0.1 µM, first compound 0.000316 µM) 69.9% | viability, T/C (second compound 0.1 µM, first compound 0.001 µM) 61.4% | viability, T/C (second compound 0.1 µM, first compound 0.00316 µM) 39.8% | viability, T/C (second compound 0.316 µM, first compound 0.000316 µM) 67% | viability, T/C (second compound 0.316 µM, first compound 0.001 µM) 66.3% | viability, T/C (second compound 0.316 µM, first compound 0.00316 µM) 30.7% | viability, T/C (second compound 1 µM, first compound 0.000316 µM) 59% | viability, T/C (second compound 1 µM, first compound 0.001 µM) 59.9% | viability, T/C (second compound 1 µM, first compound 0.00316 µM) 35.7% | viability, T/C (second compound 3.16 µM, first compound 0.000316 µM) 54.7% | viability, T/C (second compound 3.16 µM, first compound 0.001 µM) 53.5% | viability, T/C (second compound 3.16 µM, first compound 0.00316 µM) 33.7% | viability, T/C (second compound 10 µM, first compound 0.000316 µM) 33.6% | viability, T/C (second compound 10 µM, first compound 0.001 µM) 31.5% | viability, T/C (second compound 10 µM, first compound 0.00316 µM) 16%

NS(=O)(=O)OCC1CC(n2ccc3c(NC4CCc5ccccc54)ncnc32)CC1O (stereo not given) + NC1CCC(NC2CC2c2ccccc2)CC1
inactive: viability, T/C [1] 17.3% | viability, T/C [7] 16.2% | viability, T/C [13] 15.2% | viability, T/C [19] 11.4%
active: viability, T/C [2] 8.79% | viability, T/C [3] 2.05% | viability, T/C [4] 4.77% | viability, T/C [5] 0.6% | viability, T/C [6] 0.42% | viability, T/C [8] 7.48% | viability, T/C [9] 2.74% | viability, T/C [10] 0.89% | viability, T/C [11] 0.5% | viability, T/C [12] 0.48% | viability, T/C [14] 7.52% | viability, T/C [15] 2.66% | viability, T/C [16] 1.51% | viability, T/C [17] 5.93% | viability, T/C [18] 0.59% | viability, T/C [20] 6.38% | viability, T/C [21] 1.67% | viability, T/C [22] 0.54% | viability, T/C [23] 0.21% | viability, T/C [24] 5.61% | viability, T/C [25] 7.36% | viability, T/C [26] 4.1% | viability, T/C [27] 0.72% | viability, T/C [28] 0.29% | viability, T/C [29] 0.22% | viability, T/C [30] 0.19%
< 9.49 nM: IC50 (second compound 0.1 µM) | IC50 (second compound 0.316 µM) | IC50 (second compound 1 µM) | IC50 (second compound 3.16 µM) | IC50 (second compound 10 µM)

O=C(C=Cc1cccc(S(=O)(=O)Nc2ccccc2)c1)NO + NC1CCC(NC2CC2c2ccccc2)CC1
< 9.49 nM: IC50 (second compound 0.1 µM) | IC50 (second compound 0.316 µM) | IC50 (second compound 1 µM) | IC50 (second compound 3.16 µM) | IC50 (second compound 10 µM)
inactive: viability, T/C [1] 15.1% | viability, T/C [7] 18.4% | viability, T/C [13] 17.3% | viability, T/C [19] 11.6%
active: viability, T/C [2] 3.51% | viability, T/C [3] 2.43% | viability, T/C [4] 1.81% | viability, T/C [5] 0.5% | viability, T/C [6] 0.09% | viability, T/C [8] 3.02% | viability, T/C [9] 8.25% | viability, T/C [10] 1.92% | viability, T/C [11] 1.26% | viability, T/C [12] 0.1% | viability, T/C [14] 3.31% | viability, T/C [15] 4.77% | viability, T/C [16] 1.92% | viability, T/C [17] 3.19% | viability, T/C [18] 5.1% | viability, T/C [20] 2.91% | viability, T/C [21] 4.81% | viability, T/C [22] 2.66% | viability, T/C [23] 0.27% | viability, T/C [24] 0.1% | viability, T/C [25] 9.56% | viability, T/C [26] 2.44% | viability, T/C [27] 2.03% | viability, T/C [28] 1.32% | viability, T/C [29] 0.15% | viability, T/C [30] 0.17%
